{"source": "paper PMC11645656", "about": "“MRGPRX4 mediates phospho-drug associated pruritus in a humanized mouse model” (Science translational medicine, 2024)", "key": {"[1]": {"system": "MRGPRX4-expressing HEK293 cells (Gαq signaling pathway)", "test": "Pharmacological blocker experiments: phospho-drug evoked calcium response in MRGPRX4-expressing HEK293 cells after inhibitor preincubation", "settings": "30 min preincubation; 10 µM YM 254890, 20 µM U73122, 10 µM thapsigargin; stimulated with fospropofol, fosphenytoin or dexamethasone phosphate", "method": "Various HEK293 cell lines were plated on PDL-coated glass coverslips. […] For pharmacological blocker experiments, cells were pre-incubated with signaling pathway inhibitors, including YM254890, U73122, and thapsigargin, for 30 min before imaging.\nTraces of [Ca2+] from MRGPRX4-expressing HEK293 cells stimulated with (A) 1 µM\nU73122 (middle), or 10 µM sarco/endoplasmic reticulum Ca2+-ATPase inhibitor thapsigargin\n(right) for 30 min before imaging.\nindependent experiments, each performed in quadruplicate."}, "MRGPRX4 (S83)": {"target": "T1, MRGPRX4 (S83) (Homo sapiens, UniProt Q96LA9, L83S)", "T1 construct": "expressed in transfected cells", "T1 sequence (Q96LA9 whole entry L83S)": "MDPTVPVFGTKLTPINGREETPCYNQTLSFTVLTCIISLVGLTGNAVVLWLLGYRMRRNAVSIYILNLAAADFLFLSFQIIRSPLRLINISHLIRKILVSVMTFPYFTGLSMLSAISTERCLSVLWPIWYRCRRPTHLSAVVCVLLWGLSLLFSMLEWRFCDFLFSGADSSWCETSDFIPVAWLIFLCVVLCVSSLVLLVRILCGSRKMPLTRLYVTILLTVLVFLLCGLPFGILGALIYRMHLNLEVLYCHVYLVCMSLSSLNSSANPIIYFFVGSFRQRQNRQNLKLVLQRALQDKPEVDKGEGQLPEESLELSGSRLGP", "test": "EC50 determination, intracellular calcium mobilization in MRGPRX4 stably expressed HEK293 cells (FLIPR Calcium 5, Flexstation-3)", "assay_type": "cell-based", "parameters": "Fig. 1D dose-response, calcium mobilization response (individual replicate) / calcium mobilization response (Fig. 1D dose-response raw data): unit not given here", "settings": "for Fig. 1D dose-response, calcium response at Concentration (M): propofol series, individual replicate values", "description": "HEK293 cells and MRGPRX4 stably expressed HEK293 cells were seeded in 100 μl culture media on 96-well plates at a density of 40,000 cells per well and incubated overnight. The next day, the media were replaced with a dye-loading solution from the FLIPR Calcium 5 assay kit (Molecular Devices), diluted in Hank's Balanced Salt Solution (HBSS) with 20 mM HEPES, pH 7.4. After 1 h of incubation at 37°C, cells were allowed to recover for 10 min in the dark at room temperature prior to performing intracellular calcium mobilization assay in a Flexstation-3 instrument with SoftMax®Pro 7.1 software (Molecular Devices). Serial concentrations of tested drugs were prepared in HBSS/HEPES solution at 3X concentration. […] Compounds were tested in triplicates and the signals were averaged. Responses were determined by subtracting the minimum signal (at the baseline before adding the drug) from the maximum signal (obtained after drug stimulation). Four-parameter logistic (4PL) curve fit was used to plot the dose-response curves. […] Both dose-response curve fitting and EC50s calculation are computed with GraphPad Prism software (version: 6.o or above)."}}, "note": "“And” between values parts separate entries of the source, which are not always exact repeats. Identical values can stand only once. *1 amine or outer side, *2 acyl side, *3 side chain or, on linkers, in order; H or OH if unused. Where a SMILES comes first, the peptide text is derived from it. Bridges are numbered along the chain shown (N, C = ends). [ ]: non-standard residue; d: D form. X1 = CC(=O)NC(C(=O)OC(C(C)C)C(N[*:1])C(=O)[*:2])C(O)C(C)C; PhLac = O=C(O)[CH](O)Cc1ccccc1; NMeT = CN[CH](C(=O)O)[CH](C)O; NMeA = CN[CH](C)C(=O)O; NMeDha = C=C(NC)C(=O)O"}
{"smiles": "C/C=C(/C)C(=O)O[C@H]1C(C)=C2[C@H]([C@@H]1OC(=O)CCCCCCC)[C@@](C)(OC(C)=O)C[C@H](OC(=O)CCC)[C@@]1(O)[C@H]2OC(=O)[C@@]1(C)O", "note": "[thapsigargin]", "values": [{"measurement": "Effect of inhibitor on phospho-drug evoked calcium response", "setting": "[1]", "value": "abolished the calcium response"}]}
{"smiles": "C=C1C(=O)NC(C)C(=O)N(C)C(C)C(=O)NC(C(OC(=O)C(NC(C)=O)C(O)C(C)C)C(C)C)C(=O)N(C)C(C(C)OC)C(=O)OC(C)C(NC(C)=O)C(=O)OC(Cc2ccccc2)C(=O)N1C", "note": "(centres unmarked) [YM-254890] (Ac-T[PhLac][NMeDha]A[NMeA][X1][NMeT](Me); ester 1-C; configuration not given here)", "values": [{"measurement": "Effect of inhibitor on phospho-drug evoked calcium response", "setting": "[1]", "value": "abolished the calcium response"}]}
{"smiles": "COc1ccc2c(c1)CC[C@@H]1[C@@H]2CC[C@]2(C)[C@@H](NCCCCCCN3C(=O)C=CC3=O)CC[C@@H]12", "note": "[U73122]", "values": [{"measurement": "Effect of inhibitor on phospho-drug evoked calcium response", "setting": "[1]", "value": "abolished the calcium response"}]}
{"smiles": "CC(C)c1cccc(C(C)C)c1O[C@@H]1O[C@H](C(=O)O)[C@@H](O)[C@H](O)[C@H]1O", "note": "[Propofol b-D-glucuronide]", "values": [{"measurement": "Fig. 1D dose-response, calcium response at Concentration (M)", "setting": "MRGPRX4 (S83); 9.76563e-7 M", "value": "33.404 and 17.610 and 15.299 and 5.092 and 25.748 and 35.472 and 37.279 and 14.971 and 14.062"}, {"measurement": "Fig. 1D dose-response, calcium response at Concentration (M)", "setting": "MRGPRX4 (S83); 1.95313e-6 M", "value": "24.553 and 28.290 and 26.471 and 25.162 and 11.839 and 42.312 and 38.770 and 25.122 and 15.422"}, {"measurement": "Fig. 1D dose-response, calcium response at Concentration (M)", "setting": "MRGPRX4 (S83); 3.90625e-6 M", "value": "-0.931 and -0.509 and -0.147 and -0.531 and -0.497 and -0.558 and -1.252 and -0.171 and -0.163"}, {"measurement": "Fig. 1D dose-response, calcium response at Concentration (M)", "setting": "MRGPRX4 (S83); 7.8125e-6 M", "value": "-3.944 and -3.544 and -1.450 and -3.087 and -3.091 and -2.761 and -3.250 and -1.367 and -4.322"}, {"measurement": "Fig. 1D dose-response, calcium response at Concentration (M)", "setting": "MRGPRX4 (S83); 1.5625e-5 M", "value": "-14.193 and -2.564 and -12.325 and -15.196 and -3.788 and -10.098 and -11.561 and -10.981 and -6.540"}, {"measurement": "Fig. 1D dose-response, calcium response at Concentration (M)", "setting": "MRGPRX4 (S83); 3.125e-5 M", "value": "-0.025 and -0.623 and -1.002 and -0.534 and -0.882 and -0.234 and -0.728 and -0.769 and -0.154"}, {"measurement": "Fig. 1D dose-response, calcium response at Concentration (M)", "setting": "MRGPRX4 (S83); 6.25e-5 M", "value": "-11.462 and -7.089 and -18.181 and -19.274 and -11.464 and -5.994 and -9.636 and -15.344 and -11.752"}, {"measurement": "Fig. 1D dose-response, calcium response at Concentration (M)", "setting": "MRGPRX4 (S83); 0.00025 M", "value": "-8.452 and -1.759 and -25.311 and -28.879 and -1.342 and -5.301 and -7.817 and -14.781 and -12.923"}, {"measurement": "Fig. 1D dose-response, calcium response at Concentration (M)", "setting": "MRGPRX4 (S83); 0.0005 M", "value": "-2.705 and -17.232 and -3.163 and -5.843 and -6.495 and -10.762 and -7.609 and -4.103 and -11.388"}, {"measurement": "Fig. 1D dose-response, calcium response at Concentration (M)", "setting": "MRGPRX4 (S83); 0.001 M", "value": "-9.560 and -7.574 and -9.738 and -14.721 and -4.551 and -7.600 and -11.650 and -7.050 and -8.173"}]}
{"smiles": "C[C@@H]1C[C@H]2[C@@H]3C[C@@H](O)C4=CC(=O)C=C[C@]4(C)[C@@]3(F)[C@@H](O)C[C@]2(C)[C@@]1(O)C(=O)CO", "note": "[6b-hydroxy Dexamethasone]", "values": [{"measurement": "Fig. 1D dose-response, calcium mobilization response (individual replicate)", "setting": "MRGPRX4 (S83); Concentration 9.76563e-7 M", "value": "-11.185 and -2.950 and -9.064 and -1.271 and -4.466"}, {"measurement": "Fig. 1D dose-response, calcium mobilization response (individual replicate)", "setting": "MRGPRX4 (S83); Concentration 1.95313e-6 M", "value": "-4.343 and -9.147 and -5.890 and -0.806 and -7.669"}, {"measurement": "Fig. 1D dose-response, calcium mobilization response (individual replicate)", "setting": "MRGPRX4 (S83); Concentration 3.90625e-6 M", "value": "-10.884 and -6.013 and -8.580 and -8.133 and -5.676"}, {"measurement": "Fig. 1D dose-response, calcium mobilization response (individual replicate)", "setting": "MRGPRX4 (S83); Concentration 7.8125e-6 M", "value": "-1.007 and -6.768 and -0.871 and -6.992 and -1.487"}, {"measurement": "Fig. 1D dose-response, calcium mobilization response (individual replicate)", "setting": "MRGPRX4 (S83); Concentration 1.5625e-5 M", "value": "-3.580 and -12.887 and -7.336 and -12.885 and -3.031"}, {"measurement": "Fig. 1D dose-response, calcium mobilization response (individual replicate)", "setting": "MRGPRX4 (S83); Concentration 3.125e-5 M", "value": "-6.945 and -4.243 and -10.704 and -6.397 and -13.033"}, {"measurement": "Fig. 1D dose-response, calcium mobilization response (individual replicate)", "setting": "MRGPRX4 (S83); Concentration 6.25e-5 M", "value": "-3.167 and -3.420 and -21.978 and -8.518 and -4.898"}, {"measurement": "Fig. 1D dose-response, calcium mobilization response (individual replicate)", "setting": "MRGPRX4 (S83); Concentration 0.00025 M", "value": "-19.291 and -10.466 and -0.309 and -10.053 and -7.780"}, {"measurement": "Fig. 1D dose-response, calcium mobilization response (individual replicate)", "setting": "MRGPRX4 (S83); Concentration 0.0005 M", "value": "-6.623 and -13.594 and -13.062 and -8.352 and -18.691"}, {"measurement": "Fig. 1D dose-response, calcium mobilization response (individual replicate)", "setting": "MRGPRX4 (S83); Concentration 0.001 M", "value": "-11.685 and -12.391 and -8.163 and -15.688 and -9.331"}]}
